We go through five compounds from patent US9994812B2, “Systems and method for engineering muscle tissue” (UNIVERSITY OF WASHINGTON THROUGH ITS CENTER FOR …, priority 2012, dated 2018).

Type in all cases: cell-based, human
Series [1] concerns cardiomyocytes derived from healthy, and diseased hiPSC cells. Briefly: Drug testing on ANP, action potential profile. Particulars: addition of Verapamil.
Series [2] deals with hESC-derived cardiomyocyte cultures. Briefly: Action potential time course traces with 1 Hz pacing on the nanotextured substrate. Particulars: 0, 20 and 40 μM, 4 seconds. The protocol:
Representative action potential time course traces for 4 seconds in the presence of 1 Hz pacing in the presence of carboxelone, a GAP junction inhibitor at 0 μM (FIG. 19A), 20 μM (FIG. 19B), and 40 μM (FIG. 19C) are shown.

The test system of series [3] is paced hiPSC-derived cardiomyocytes monolayer. Briefly: Optical mapping of conduction velocity vectors and spatial activation map. Particulars: 40 μM vs 0 μM.
The test system of another series is hES-CM monolayers. Briefly: Action potential profile of monolayers on the ANP polymer substrate.
Series [4] has as its system hESC-derived cardiomyocytes (hESC-CMs). Briefly: High throughput cardiotoxicity profiling, live/dead imaging (Calcein-AM / EtBr). Particulars: doxorubicin, 24 hrs. The protocol: FIGS. 16A-16B show high throughput cardiotoxicity profiling. To test the capacity of the ANP and system to identify cardiotoxic drugs, hESC-derived cardiomyocytes (hESC-CMs) were treated with doxorubicin for 24 hrs and then imaged using the high-throughput Applied Precision DeltaVision system.

Series [5] deals with control IMR90 cells (IMR90 hiPSC-derived cardiomyocytes). Briefly: Sarcomere organization on nanotextured platforms, control cells. Particulars: addition of isoproterenol. The text has this: (§1) FIG. 34A-34D show nanotextured platforms facilitate maturation of hiPSC-derived cardiomyocytes allowing them to be used as effective disease models for drug testing against cardiomyopathies, and as in vitro cardiac disease models. […] Since nanotextures allow physiological organization of sarcomeres, it serves as a disease model to test the effect of a drug on a diseased cardiomyocyte.

Series [6] has as its system MHY7 mutated iPSC-derived CMs. Briefly: Sarcomere organization on nanotextured platforms, disease model. Particulars: addition of isoproterenol.
Text: as §1

As to `COc1ccc(CCN(C)CCCC(C#N)(c2ccc(OC)c(OC)c2)C(C)C)cc1OC` (stereo not drawn) [Verapamil], the AP profile result in series [1] is given as “causes distortions in AP profile”. As for `CC1(C)[C@@H](OC(=O)CCC(=O)O)CC[C@]2(C)[C@H]3C(=O)C=C4[C@@H]5C[C@@](C)(C(=O)O)CC[C@]5(C)CC[C@@]4(C)[C@]3(C)CC[C@@H]12` [carboxelone], the “effect on action potential time course traces” value in series [2] is on record as “dose dependent”. Besides, in series [3], the conduction velocity vectors result is “decrease in conduction across the tissue” and the “spatial activation map of electrical activity” value is given as “decrease in electrical activity of the monolayer”. On to `COc1cc(N)c(Cl)cc1C(=O)NC1CCN(CCCOc2ccc(F)cc2)CC1OC` (stereo not drawn) [cisapride], for which the AP profile entry in the series with hES-CM monolayers (K+ channel inhibitor on hES-CM monolayers) is on record as “distortions in AP profile”. Moreover, the “prolongation of action potential” value in the series on hES-CM monolayers (addition of cisapride for 2 minutes) is “prolongation of action potential in a significant manner”. In the case of `COc1cccc2c1C(=O)c1c(O)c3c(c(O)c1C2=O)C[C@@](O)(C(=O)CO)C[C@@H]3O[C@H]1C[C@H](N)[C@H](O)[C@H](C)O1` [doxorubicin], the “percentage of dead hESC-CMs” value in series [4] is recorded as “statistically significant increase”. Turning to `CC(C)NCC(O)c1ccc(O)c(O)c1` (stereo not drawn) [isoproterenol], the sarcomeric organization entry in series [5] is listed as “does not result in loss of sarcmeric organization”. In addition, the sarcomere organization result in series [6] is listed as “results in loss of sarcomere organization”.
